Numbers after ± are expanded uncertainties.
Experiments:
[1] = Crystal; DSC
[2] = Molar enthalpy of transition or fusion; conditions: Crystal; DSC

- Triple point temperature [1]: 440.35 ± 1.2 K
- Molar enthalpy of transition or fusion [2]: 6.84 ± 0.237 kcal/mol
Compound: Cc1cnc(C(=O)O)cn1 [2-methylpyrazine-5-carboxylic acid]

Source: the NIST ThermoML archive (doi:10.1021/acs.jced.9b00406)
